Results published in US8795740B2, “Drip tray tablet” (Novapharm Research (Australia) Pty Ltd, priority 2003, dated 2014).

Assay: preservation of enzyme activity in the tablet in use
Format: physicochemical
Conditions: in the non-dissolved part of the tablet
Excerpt: A preferred boron compound is borax, which the present inventors have found acts to preserve the enzyme activity in use for at least 3 months in the non-dissolved part of the tablet. The present invention thus provides matching between the enzyme activity and tablet dissolution parameters.

O=BOB(O)OB(O)OB=O [borax, Borax]
time for which enzyme activity is preserved in use: at least 3 months
